PMC12549899 (Nature Communications, 2025)
Values joined by “and” are separate entries in the source; they are usually repeats but may differ in a detail not shown here. Identical values can stand only once.

Target: T1, DrOTOP1 G130W/A274W (Danio rerio, UniProt Q7ZWK8, A274W/G130W)
T1 construct: A previously generated codon-optimized full-length DrOTOP1[8]; (UniProt: Q7ZWK8) construct; expressed in transfected cells; host or cells: HEK-293 (CRL-1573, ATCC)
T1 sequence (Q7ZWK8 1-586 G130W/A274W): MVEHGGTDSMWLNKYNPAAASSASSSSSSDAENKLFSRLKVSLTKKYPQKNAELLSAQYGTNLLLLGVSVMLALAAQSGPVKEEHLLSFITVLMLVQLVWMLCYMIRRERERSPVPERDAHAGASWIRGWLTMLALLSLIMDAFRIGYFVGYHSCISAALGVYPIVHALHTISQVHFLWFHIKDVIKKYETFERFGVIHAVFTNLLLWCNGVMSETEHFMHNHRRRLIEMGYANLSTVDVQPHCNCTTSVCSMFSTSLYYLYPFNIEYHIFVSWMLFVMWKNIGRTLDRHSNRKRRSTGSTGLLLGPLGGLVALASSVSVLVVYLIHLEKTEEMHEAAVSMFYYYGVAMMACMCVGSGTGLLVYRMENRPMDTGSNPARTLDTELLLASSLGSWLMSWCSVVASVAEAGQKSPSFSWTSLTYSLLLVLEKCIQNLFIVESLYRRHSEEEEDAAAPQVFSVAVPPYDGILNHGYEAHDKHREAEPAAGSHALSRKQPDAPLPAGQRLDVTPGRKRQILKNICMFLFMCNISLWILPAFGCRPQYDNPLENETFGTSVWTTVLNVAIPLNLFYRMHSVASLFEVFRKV
Experiment: Whole-cell patch-clamp, inhibition of acid-evoked currents, DrOTOP1 G130W/A274W
Type: cell-based, zebrafish (Danio rerio)
Experimental: Given our limited success in identifying mutations of the central site that disrupt antagonism by C2.2, we tested whether mutations of the central site in a background of G130W (the most impactful outer site mutation) might unmask contributions of this site. Thus, we generated and tested double mutants of G130W with E384A, A274W, and A388W. […] We also measured the dose-dependence of inhibition by C2.2 for both G130W/A388W and G130W/E384A (Fig. 5I, J). […] G130W was tested in parallel to confirm that 100 and 300 μM C2.2 produced dose-dependent inhibition.
HEK-293 cells (CRL-1573, ATCC) were cultured in DMEM (Thermofisher 11995073) containing 10% fetal bovine serum (Life Technology 16000044) and Penicillin-Streptomycin (100 I.U./mL) and (100 µg/mL), respectively. Cells were transfected with WT DrOTOP1 or mutant DrOTOP1 channels in 35 mm petri dishes, with ~ 500 ng DNA and 2 μL TransIT-LT1 transfection reagent (Mirus Bio Corporation, Cat # MIR2300) following the manufacturer’s protocol. […]
Whole-cell patch-clamp recording was performed as previously described[6],[22],[25]. Recordings were made with an Axopatch 200B amplifier, digitized with a Digidata 1322a 16-bit data acquisition system, acquired with pClamp 8.2 and analyzed with Clampfit 10 (Molecular Devices). […]
All data are presented as mean ± SEM unless otherwise noted, and each data point represents an independent replicant. Inhibition of compounds was quantified as ((I2peak-I1)/(I2peak))*100, where I1 is the current immediately before wash-off and I2peak is the maximum recovered current (Supplementary Fig. 2). Hill coefficients were determined by the following equation: Y = Bmax*X^h/(Kd^h + X^h). Absolute IC50 was determined by the following equation: Fifty = (Top + Baseline)/2 Y = Bottom + (Top-Bottom)/(1 + ((Top-Bottom)/(Fifty-Bottom) − 1)*(AbsoluteIC50/X)^HillSlope). pH50 curves (Fig. 6G inset) were determined using the following equation: Y = Bottom + (Top-Bottom)/(1 + (EC/X)^HillSlope) where EC = EC50 control. […]

Row | Compound | Inhibition of currents (100 µM, single cells) | inhibition at 100 µM (100 µM, single cells) [%] | inhibition at 10 µM (10 µM, single cells or mean) [%]
1 | O=C(/C(=N\O)c1ccccc1)c1ccccc1 [C11, benzil monoxime] | 67.5079% and 70.0684% and 78.866% and 74.4022% | 67.5 | –
2 | C=C(C)COc1ccccc1NC(=O)c1nc[nH]c1C [C2.2] | – | – | 8.49
